Laboratory results reported in US20140018288A1, “X-DING-CD4 Peptide” (priority 2012, published 2014).

Tests used:
[1] = test system: cellular uptake of X-DING-CD4 protein; test: Cellular uptake of X-DING-CD4 protein tested by RSA in 1G5 cells treated with uptake inhibitors; type: cell-based
Procedure: Cellular uptake of X-DING-CD4 protein was tested by RSA in 1G5 cells treated with chemicals affecting: (i) clatrin mediated endocytosis—[…] (CPZ); (ii) endocytosis—cytochalasin D (CCD) and chloroquine (CQ) or (iii) macropinocytosis—dimethyl amiloride (DMA). Untreated group referred to the experimental system where X-DING-CD4 mediated inhibition of transcription was measured without cellular exposure to chemicals.

HIV-1 LTR promoter = test: Rapid Suppression Assay (RSA), PMA-induced HIV-1 LTR-driven luciferase in 1G5 cells; type: cell-based; details: for IC50: 1G5 cells, PMA 5 ng/ml, read-out: IC50, HIV-1 LTR promoter inhibition; for IC50, HIV-1 LTR promoter inhibition, mass concentration: Table 1
From the text: We applied the cell based Rapid Suppression Assay (RSA) for testing X-DING-CD4-induced inhibition of HIV-1 LTR promoter (Lesner et al., 2004; Lesner et al., 2005). Briefly, 1 G5 cells (obtained through the NIH AIDS Research and Reagent Program, Division of AIDS, NIAID, NIH) that are stably transfected with an inducible luciferase gene driven by HIV-1 LTR (Aguilar-Cordova et al., 1994) were washed in PBS, resuspended in hybridoma medium to concentration of 5×10^6cells/ml. For purpose of generating control titration curves, 100 μl aliquots of 1G5 cells were mixed with 100 μl cell culture medium either supplemented with various amount of rX-DING-CD4^pep (SEQ ID No: 1) or no rX-DING-CD4^pep, and incubated for three hours at 37° C. Subsequently, all cells were induced with phorbol 12-myristate 13-acetate (PMA) at a concentration of 5 ng/ml. Two control tubes containing 1G5 cells without rX-DING-CD4^pep treatment were resuspended in hybridoma medium with or without PMA. Three hours later cells were collected by centrifugation and lysed in the same tubes using Reporter Lysis buffer (Promega). The expression levels of luciferase protein in the lysates were determined according to the manufacturer's protocol. The X-DING-CD4^pep inhibition values were established based on the formula: [(LUC1-LUC0)×100/Z]−100; where LUC1 is the value obtained from cells induced by PMA and treated with a specific dilution of X-DING-CD4^pep; and LUC0 is the basal value obtained from the uninduced and untreated cells; Z is the absolute luciferase induction by PMA calculated as Z=LUCmax-LUCO3 where LUCmax is the value of 100% luciferase expression in PMA induced X-DING-CD4^pep untreated cells.
One aspect of the present invention is related to X-DING-CD4 peptide derivatives. Here we obtained 15 derivatives SED ID NOS: 1-15 by recombination or in vitro synthesis. We tested the biological activity of some these derivatives by rapid suppression assay (RSA). In XD-4M, the third amino acid glycine in the native X-DING-CD4 peptide was substituted with the polar amino acid glutamine. In XD-7, the two amino acids, cysteine and valine, replaced the three amino acids, glycine, serine and aspartic acid, in the native X-DING-CD4 peptide. In XD-12 and XD-12sh, the 69th amino acid glutamic acid in the native X-DING-CD4 peptide was methylated. In XD-9, the 69th amino acid glutamic acid in the native X-DING-CD4 peptide was substituted with the amino acid glutamine. The RSA procedure was similar to that described in Example 2. The inhibitory values are plotted in FIG. 5.
We performed the rapid suppression assay (RSA) which tests directly the inhibition of HIV-1 transcription (similar to the procedure described in Example 2), the MAGI assay which tests the inhibition of HIV-1 replication in a single cycle infection (similar to the procedure described in Example 2), and the HIV-1 infection inhibition assay in human PBLs.

NL4-3 HIV-1 isolate [2] = test: MAGI assay of HIV-1 replication in MAGI-CCR-5 cells; type: cell-based; details: DING family proteins, FIG. 16B
Procedure: The antiviral activity of rX-DING-CD4^pep was tested by MAGI assay. […] Subsequently, cells were exposed to rX-DING-CD4^pep treatment in the presence of DMEM supplemented with 5% fetal bovine serum, antibiotics, glutamate and […] DEAE dextran. […] Replication of virus was evaluated forty eight hours later after fixation of cells with 1% formaldehyde and 0.2% glutaraldehyde in PBS. Expression of β-galactosidase was visualized by 50 min exposure to X-GAL (5-bromo-4-chloro-3-indolyl-β-D-galactopyranoside), 0.4 mg/ml 2 mM MgCl2, 4 mM potassium ferricyanide at 37° C. After enumeration of the infected (blue) cells, all cells were lysed and subjected to the protein assay (Bio-Rad). All data were adjusted by total protein concentration and anti-viral activity was calculated as percent inhibition. The infected untreated and uninfected cells served as (+) and (−) controls to calculate 100% virus infectivity. The inhibition values for HIV-1 replication were calculated based on the formula [(R1−R0)×100/Z]-100; where R1 is the value obtained from cells infected by HIV-1 and treated with specific dilution of X-DING-CD4^pep and R^0 is the basal value obtained from the uninfected and untreated cells; Z is the absolute HIV-1 replication value calculated as Z═Rmax−R0, where Rmax is the value representing 100% of HIV-1 replication in X-DING-CD4^pep untreated cells.

NL4-3 HIV-1 isolate [3] = test: HIV-1 infection inhibition assay in human PBLs, intracellular p24 core antigen ELISA; type: cell-based; details: 1 μg/ml protein, seven days after infection
Procedure: In addition, we measured the inhibitory activities of these four proteins in HIV-1-infected peripheral blood lymphocytes (PBLs). The cells are treated separately with the proteins and the replication of virus was measured five and seven days later by assessing the intracellular levels of p24 core protein. PBLs were obtained by elutriation from the whole blood of healthy, HIV-1 negative volunteers. Before the experiment, cells were stimulated for 2 days in Dulbecco's modified Eagle medium (DMEM) supplemented with 10% fetal bovine serum (FBS), phytohemaglutinin (PHA, 5 μg/ml; Sigma), interleukin 2 (10 U/ml; R&D Systems), antibiotics and glutamate. Subsequently, cells were cultured without PHA. Briefly, 3×10^6 PBLs/well in a 24-well plate (Costar Scientific) were cultured in 1 ml RPMI medium supplemented with antibiotics, glutamate and 1 μg/ml of each protein, respectively. Six hours after the initial exposure to the protein treatments, the culture medium was supplemented with 3%/Vol FBS. […] Replication of virus was evaluated at five and seven days after infection by Elisa assay of the intracellular HIV-1 p24 core antigen (Perkin Elmer). The viability of cells was assessed by the dye exclusion method (Strober, 2001) at 1, 2, 3, 5 and 7 days after protein treatments.

X-DING-CD4 mRNA = test: Induction of X-DING-CD4 mRNA expression in 1G5 cells (qRT-PCR); type: cell-based; details: 6 hours, 200 ng/ml
Procedure: The sX-DING-CD4 may be released from the macropinosome to endoplasmic reticulum (ER) and cause induction of IFNα, which in turn induces the expression of X-DING-CD4 mRNA and endogenous X-DING-CD4 protein (step 2). The induction of X-DING-CD4 mRNA by sX-DING-CD4 was tested in 1G5 cells. Briefly, three groups of 1G5 cells were treated for 6 hours with NL4-3 HIV-1 at MOI of 0.1, 200 ng/ml native X-DING-CD4 protein, and 1-126 rX-DING-CD4 peptide (i.e., rX-DING-CD4^pep), respectively. […] The eX-DING-CD4, derived from the newly synthesized X-DING-CD4, binds CN and is transported into the nucleus where it blocks LTR transcription (steps 2-7).
Two peptide fragments from the N-terminal region of X-DING-CD4 were synthesized and their activities in inducing IFN-α and X-DING-CD4 mRNA expressions were determined by qRT-PCR. The concentration of proteins used in the assays was 200 ng/ml except for the combination of XD-1 and XD-4 where we used 100 ng/ml of each peptide. The 1-126 rX-DING-CD4 and peptide C3 p16 served as positive and negative controls, respectively. The C3 Peptide P16 was derived from the C3d component of serum complement. C3 Peptide P16 regulates B cells, but not T cells, through interacting with the gp140 C3d receptor (CR2).

[4] = Acute toxicity after intraperitoneal injection in mice; type: in vivo, mice (B6/SJL); details: 1-50 μg rX-DING-CD4^pep or 50 μg nX-DING-CD4, 7 days
Procedure: In the animal tests, eight-week old wild-type mice (B6/SJL) with both genders in each test group were injected intraperitoneally with 1-50 μg of rX-DING-CD4^pep or 50 μg nX-DING-CD4. The nX-DING-CD4 refers to the native form of X-DING-CD4 protein that was purified through IXC chromatography from the extracellular compartment of HIV-1 resistant T-cells. The rX-DING-CD4^pep refers to therapeutic X-DING-CD4 peptide that was expressed in E. coli and purified through Ni-affinity column. Toxicity was assessed by obvious symptoms including diarrhea, ruffled fur, abnormal gait, or loss of more than 10% weight. Animals were weighted before injection and then observed every hour for the first 10 hours after injection; then animals were weighted on 1, 3, 4 and 7 days after X-DING-CD4 administration. […] In its highest administered dose (50 μg—corresponding to 2 μg/G) we exceeded therapeutic dose blocking 95% of HIV promoter activity (by RSA assays) and 90% virus replication (by MAGI assays) (See FIGS. 2 & 3 in Example 2).

| Molecule | IC50 (HIV-1 LTR promoter; RSA) | IC50, HIV-1 LTR promoter inhibition, mass concentration (HIV-1 LTR promoter; RSA) | further results |
| --- | --- | --- | --- |
| C=C1[C@@H](C)[C@H]2[C@H](Cc3ccccc3)NC(=O)[C@]23[C@H](OC(C)=O)/C=C/[C@@](C)(O)C(=O)[C@@H](C)C/C=C/[C@H]3[C@@H]1O [CCD, cytochalasin D] | – | – | effect of uptake inhibitor on sX-DING-CD4 inhibition of LTR transcription [1]: still demonstrated inhibitory effects of sX-DING-CD4 on LTR transcription |
| CN(C)CCCN1c2ccccc2Sc2ccc(Cl)cc21 [CPZ, Chromopromazine] | – | – | effect of uptake inhibitor on sX-DING-CD4 inhibition of LTR transcription [1]: still demonstrated inhibitory effects of sX-DING-CD4 on LTR transcription |
| CCN(CC)CCCC(C)Nc1ccnc2cc(Cl)ccc12 (stereo not shown) [CQ, chloroquine] | – | – | effect of uptake inhibitor on sX-DING-CD4 inhibition of LTR transcription [1]: still demonstrated inhibitory effects of sX-DING-CD4 on LTR transcription |
| CN(C)c1nc(N)c(C(=O)N=C(N)N)nc1Cl [DMA, dimethyl amiloride] | – | – | effect of uptake inhibitor on sX-DING-CD4 inhibition of LTR transcription [1]: abolished the inhibitory effect of sX-DING-CD4 on LTR transcription |
| DINGGGATLPQK [XD-1] | 51.2 nM | (60 ng/ml) | – |
| DINGGQTLPQK [XD-4M] | 57 nM | (66.9 ng/ml) | – |
| GTKNVHWACVSKLTSTELSTY [XD-7] | 29.8 nM | (69.3 ng/ml) | – |
| GTKNVHWAGSDSKLTSTELSTYC [XD-5] | 35.8 nM | (88.7 ng/ml) | – |
| GVSNKNVHWAGSDSKLTAT [XD-14] | 36.8 nM | (72.5 ng/ml) | – |
| GVSNKNVHWAGSDSKLTATE(OMe)LSTY [XD-12] | 33.7 nM | (86.2 ng/ml) | – |
| GVSNKNVHWAGSDSKLTATLLSTY [XD-15] | 36.7 nM | (93.5 ng/ml) | – |
| GVSNKNVHWAGSDSKLTATQLSTY [XD-13] | 30.2 nM | (77.5 ng/ml) | – |
| KNVHWAGSDSKLTSTELSTY [XD-4] | 31 nM | (70 ng/ml) | – |
| LLSTY [XD-15sh] | 157 nM | (93.5 ng/ml) | – |
| QLSTY [XD-13sh] | 121 nM | (74 ng/ml) | – |
| YTSLE [XD-12sh, YTSLE(OMe)] | 121 nM | (74 ng/ml) | – |
| X-DING-CD4: native form of X-DING-CD4 protein purified from the extracellular compartment of HIV-1 resistant T-cells, about 40 kDa (protein, listed as Homo sapiens) MADINGGGATLPQPLYQTSGVLTAGFAPYIGVGSGKGKLAFLNNDYSQFGTGTKNVHWAGSDSKLTSTELSTYASTKQAAWGKLIQVPSVATSVAIPFNKAGSNAVDLSVDQLCGVFSGRITTWNQLPATGRTGNIVVVYRNEASGTTELFTRFLTAKCVNESKKFVVTTNFADSFGVPAGAVPAVTSQGVMTKLNAGDGRITYMSPDYAAPTLAGLDDATKVAKVAGVSPAPDNVSAAIAAVPVPAAANVALQNAWVPVFAAAADANDPSVVPYPSTGFPILGFTNLIFSQ | – | – | IC50, HIV-1 replication (MAGI) (NL4-3 HIV-1 isolate [2]): 0.075 µg/mL; reduction of HIV-1 replication (p24) (NL4-3 HIV-1 isolate [3]): about 11 fold; expression of X-DING-CD4 mRNA (X-DING-CD4 mRNA): induced expression of X-DING-CD4 mRNA; obvious symptoms of toxicity (diarrhea, ruffled fur, abnormal gait) [4]: Neither of rX-DING-CD4^pep treatment nor nX-DING-CD4 treatment caused any obvious symptoms; IC50 RSA (HIV-1 LTR promoter; DING family proteins): 0.052 µg/mL; HIV-1 LTR IC50 (HIV-1 LTR promoter; RSA, DING family proteins, FIG. 16A): 0.052 µg/mL |
